Patent publication US9247750B2, “Polyenylcyclopropanecarboxylic esters with high insecticidal activity” (Endura S.P.A., priority 2007, dated 2016)

Assays:
Type in all cases: in vivo
[1] = test system: Aedes aegypti; test: Insecticide effectiveness in the vapour phase against mosquitoes, impregnated paper unit in 20 m^3 room (Example 5); settings: 5 mg/unit; for % mortality 24 h: 24th hour from start of test; for % Knock-down 8 h: at end of 8th hour; for Knock-down time KT10 / Knock-down time KT50 / Knock-down time KT90: average of 3 cages
Method: (§1) Test units consisting of a paper support 20 cm×10 cm in size were impregnated with the compound of example 3 and, for comparative purposes, with the reference compounds transfluthrin and metofluthrin, at an amount of 5.00 mg/unit for each compound (pure).
(§2) Using a common laboratory stand, the test unit was placed at a height of about 30 cm from the ground along one side of a 20 m^3 room (L 3.00 m×D 2.49 m×H 2.69 m). In order to homogenize the insecticidal air within the room, a small electric fan was placed on the floor diagonal to the surface of the unit, in the is nearest corner at a distance of about 50 cm from the unit. Three metal cages (L 8.4 cm×Ø 8.0 cm×mesh 1.0 mm) for every mosquito species, each containing 20 3-4 day old individuals of mixed sex, were placed along the other three sides of the room, at a height of 1.80 m from the ground and at a distance of 0.45 m from the respective walls. During the test the room was kept closed and temperature and humidity were controlled (T 23-26° C., RH 49-61%).
(§3) The fan was switched on and left on for 8 continuous hours. The times needed to reach 10%, 50% and 90% insect knock-down (KT10, KT50 and KT90, respectively) were recorded.
(§4) Every 2 hours and up to the 6th hour after the fan was switched on, new cages were introduced containing insects (set of 3 cages for each species).
(§5) At the end of the 8th hour, the percentage of insects knocked down in all the cages was determined, then the insects were removed from the room and transferred into an uncontaminated atmosphere within closed containers containing a sugary solution. The percentage mortality was recorded at the 24th hour from the start of the test.
(§6) The results obtained are summarized in tables 1 and 2 and the data are averages for the 3 cages.

[2] = test system: Culex quinquefasciatus; test: as above; settings: 5 mg/unit; for % mortality 24 h: 24th hour from start of test; for % Knock-down 8 h: at end of 8th hour; for Knock-down time KT10 / Knock-down time KT50 / Knock-down time KT90: average of 3 cages
Method: as §1, §2, §3, §4, §5, §6

[3] = test system: Blattella germanica; test: Effectiveness of residual insecticide on surfaces (glazed tiles) against cockroaches (Example 6); settings: 50 mg/m^2 on glazed tiles; for percentage knock-down after 24 hours: 24 h exposure
Method: Solutions of the compound of example 3 in acetone and, for comparison, of the reference compounds Transfluthrin and Metofluthrin were applied from a distance of 12 cm onto glazed tiles (Ostara model, 15×15 cm=225 cm^2) by means of a suitable glass sprayer, so as to obtain an applied amount of pure compound equal to 50 mg/m^2. After treatment the tiles were transferred to and maintained in a closed test room at controlled temperature and humidity (24-25° C., RH 50-60%). Glass rings (H 5.5 cm×Ø 9.5 cm), with their internal surface treated with talc, and each containing 5 cockroaches, were positioned at the centre of the tiles for each of the assessment times of 24 hours, 3, 7, 10 and 14 days following treatment. For each assessment day, the insects were maintained on the surface for 24 hours and the time (hours, minutes) necessary to attain 100% knock-down followed by death, or percentage knock-down at the end of 24 hours, were recorded.

[4] = test system: Aedes aegypti; test: Insecticide effectiveness in the vapour phase against mosquitoes, impregnated paper unit in 20 m^3 room (Example 9); settings: 5 mg/unit; for % mortality 24 h: 24th hour from start of test; for % Knock-down 8 h: at end of 8th hour; for Knock-down time KT10 / Knock-down time KT50 / Knock-down time KT90: average of 3 cages
Method: as §2, with “Test units consisting of a paper support 20 cm×10 cm in size were impregnated with the compound of examples 3, 7 and 8 and, for comparative purposes, with the reference compounds transfluthrin and metofluthrin, at an amount of 5.00 mg/unit for each compound (pure). Using” for “Using”, “the” for “the is”, “49-61%). The fan was switched on and left on for 8 continuous hours. The times needed to reach 10%, 50% and 90% insect knock-down (KT10, KT50 and KT90, respectively) were recorded.” for “49-61%).”
as §4, §5, §6

[5] = test system: Culex quinquefasciatus; test: as above; settings: 5 mg/unit; for % mortality 24 h: 24th hour from start of test; for % Knock-down 8 h: at end of 8th hour; for Knock-down time KT10 / Knock-down time KT50 / Knock-down time KT90: average of 3 cages
Method: as §2, with “Test units consisting of a paper support 20 cm×10 cm in size were impregnated with the compound of examples 3, 7 and 8 and, for comparative purposes, with the reference compounds transfluthrin and metofluthrin, at an amount of 5.00 mg/unit for each compound (pure). Using” for “Using”, “the” for “the is”, “49-61%). The fan was switched on and left on for 8 continuous hours. The times needed to reach 10%, 50% and 90% insect knock-down (KT10, KT50 and KT90, respectively) were recorded.” for “49-61%).”
as §4, §5, §6

With `CC=CC1C(C(=O)OCc2c(F)c(F)c(COC)c(F)c2F)C1(C)C` (centres unmarked) [Metofluthrin, (2,3,5,6-tetrafluoro-4-methoxy-methyl)benzyl-2,2-dimethyl-3-prop-1-enylcyclopropanecarboxylate] the “% mortality 24 h” value ([1]; insect exposure after 0 hours) was 100%, the “% Knock-down 8 h” value ([1]; insect exposure after 0 hours) was 100% and the “Knock-down time KT10” value ([1]; insect exposure after 0 hours) was 23 min. The “Knock-down time KT50” value ([1]; insect exposure after 0 hours) was 30 min, the “Knock-down time KT90” value ([1]; insect exposure after 0 hours) was 39 min and the “% mortality 24 h” value ([1]; insect exposure after 2 hours) was 100%. For the same molecule, the “% Knock-down 8 h” value ([1]; insect exposure after 2 hours) was 100%, the “Knock-down time KT10” value ([1]; insect exposure after 2 hours) was 7 min and the “Knock-down time KT50” value ([1]; insect exposure after 2 hours) was 9 min. For the same molecule, the “Knock-down time KT90” value ([1]; insect exposure after 2 hours) was 15 min, the “% mortality 24 h” value ([1]; insect exposure after 4 hours) was 100% and the “% Knock-down 8 h” value ([1]; insect exposure after 4 hours) was 100%. For the same molecule, the “Knock-down time KT10” value ([1]; insect exposure after 4 hours) was 6 min, the “Knock-down time KT50” value ([1]; insect exposure after 4 hours) was 8 min and the “Knock-down time KT90” value ([1]; insect exposure after 4 hours) was 14 min. The “% mortality 24 h” value ([2]; insect exposure after 0 hours) was 100%, the “% Knock-down 8 h” value ([2]; insect exposure after 0 hours) was 100% and the “Knock-down time KT10” value ([2]; insect exposure after 0 hours) was 26 min. The “Knock-down time KT50” value ([2]; insect exposure after 0 hours) was 30 min, the “Knock-down time KT90” value ([2]; insect exposure after 0 hours) was 35 min and the “% mortality 24 h” value ([2]; insect exposure after 2 hours) was 100%. The “% Knock-down 8 h” value ([2]; insect exposure after 2 hours) was 100%, the “Knock-down time KT10” value ([2]; insect exposure after 2 hours) was 11 min and the “Knock-down time KT50” value ([2]; insect exposure after 2 hours) was 16 min. For the same molecule, the “Knock-down time KT90” value ([2]; insect exposure after 2 hours) was 24 min, the “% mortality 24 h” value ([2]; insect exposure after 4 hours) was 100% and the “% Knock-down 8 h” value ([2]; insect exposure after 4 hours) was 100%. For the same molecule, the “Knock-down time KT10” value ([2]; insect exposure after 4 hours) was 11 min, the “Knock-down time KT50” value ([2]; insect exposure after 4 hours) was 16 min and the “Knock-down time KT90” value ([2]; insect exposure after 4 hours) was 20 min. For the same molecule, the “percentage knock-down after 24 hours” value ([3]; 1 day after treatment) was 80%*), the “Time to reach 100% knock-down” value ([3]; 1 day after treatment, one of the 5 individuals recovered within 24 hours) was 2 h (24 h and the “percentage knock-down after 24 hours” value ([3]; 3 days after treatment) was 24 h 40%. The “percentage knock-down after 24 hours” value ([3]; 7 days after treatment) was 24 h 0%, the “percentage knock-down after 24 hours” value ([3]; 10 days after treatment) was 24 h 0% and the “% mortality 24 h” value ([4]; insect exposure after 0 hours) was 100%. For the same molecule, the “% Knock-down 8 h” value ([4]; insect exposure after 0 hours) was 100%, the “Knock-down time KT10” value ([4]; insect exposure after 0 hours) was 16 min and the “Knock-down time KT50” value ([4]; insect exposure after 0 hours) was 25 min. For the same molecule, the “Knock-down time KT90” value ([4]; insect exposure after 0 hours) was 34 min, the “% mortality 24 h” value ([4]; insect exposure after 2 hours) was 100% and the “% Knock-down 8 h” value ([4]; insect exposure after 2 hours) was 100%. The “Knock-down time KT10” value ([4]; insect exposure after 2 hours) was 7 min, the “Knock-down time KT50” value ([4]; insect exposure after 2 hours) was 9 min and the “Knock-down time KT90” value ([4]; insect exposure after 2 hours) was 15 min. The “% mortality 24 h” value ([4]; insect exposure after 4 hours) was 100%, the “% Knock-down 8 h” value ([4]; insect exposure after 4 hours) was 100% and the “Knock-down time KT10” value ([4]; insect exposure after 4 hours) was 6 min. For the same molecule, the “Knock-down time KT50” value ([4]; insect exposure after 4 hours) was 8 min, the “Knock-down time KT90” value ([4]; insect exposure after 4 hours) was 14 min and the “% mortality 24 h” value ([5]; insect exposure after 0 hours) was 100%. The “% Knock-down 8 h” value ([5]; insect exposure after 0 hours) was 100%, the “Knock-down time KT10” value ([5]; insect exposure after 0 hours) was 22 min and the “Knock-down time KT50” value ([5]; insect exposure after 0 hours) was 32 min. For the same molecule, the “Knock-down time KT90” value ([5]; insect exposure after 0 hours) was 36 min, the “% mortality 24 h” value ([5]; insect exposure after 2 hours) was 100% and the “% Knock-down 8 h” value ([5]; insect exposure after 2 hours) was 100%. For the same molecule, the “Knock-down time KT10” value ([5]; insect exposure after 2 hours) was 11 min, the “Knock-down time KT50” value ([5]; insect exposure after 2 hours) was 16 min and the “Knock-down time KT90” value ([5]; insect exposure after 2 hours) was 22 min. The “% mortality 24 h” value ([5]; insect exposure after 4 hours) was 100%, the “% Knock-down 8 h” value ([5]; insect exposure after 4 hours) was 100% and the “Knock-down time KT10” value ([5]; insect exposure after 4 hours) was 10 min. For the same molecule, the “Knock-down time KT50” value ([5]; insect exposure after 4 hours) was 14 min and the “Knock-down time KT90” value ([5]; insect exposure after 4 hours) was 20 min.
